Assay results as given in ChEMBL document CHEMBL5634134, “Design, synthesis, and biological evaluation of novel 4,4'-bipyridine derivatives acting as CDK9-Cyclin T1 protein-protein interaction inhibitors against triple-negative breast cancer” (Eur J Med Chem, 2023).
Calls of active or inactive are those of the source. No cut-off for these calls is given here.

Tests used:
[1] = system: MDA-MB-231; assay: Induction of apoptosis in human MDA-MB-231 cells assessed as viable cells at 333 nM incubated for 72 hrs by Annexin V-FITC/PI staining based flow cytometry analysis (reference value: 94.81 %); format: functional; settings: read-out: Activity
[2] = system: 4T1; assay: Antitumor activity against mouse 4T1 cells implanted in athymic BALB/c mouse assessed as reduction in tumor volume at 12.5 to 25 mg/kg, ip administered for 14 days; format: functional, organism-based; settings: dose 12.5-25 mg/kg, time 14.0 day
[3] = system: MDA-MB-231; assay: Induction of apoptosis in human MDA-MB-231 cells assessed as viable cells at 111 nM incubated for 72 hrs by Annexin V-FITC/PI staining based flow cytometry analysis (reference value: 94.81 %); format: functional; settings: read-out: Activity
[4] = system: MDA-MB-231; assay: Induction of apoptosis in human MDA-MB-231 cells assessed as late apoptotic cells at 1000 nM incubated for 72 hrs by Annexin V-FITC/PI staining based flow cytometry analysis (reference value: 4.04 %); format: functional
[5] = system: MDA-MB-231; assay: Inhibition of RNA Polymerase II CTD phosphorylation at ser2 residue in human MDA-MB-231 cells at 1 uM incubated for 24 hrs by Western blotting analysis; format: cell-based
[6] = system: MDA-MB-231; assay: Inhibition of colony formation in human MDA-MB-231 cells assessed as reduction in colony size incubated for 10 days by crystal violet staining based analysis; format: functional, cell-based; settings: dose 12-1000 nM, time 10.0 day
[7] = Cytotoxicity against HK-2 cells assessed as inhibition of cell growth incubated for 72 hrs by MTT assay; format: toxicity, cell-based; settings: human
[8] = Toxicity in mouse assessed as death rate at 1000 mg/kg, ip administered for 16 days relative to control; format: organism-based; settings: in vivo, time 16 day, read-out: Activity
[9] = system: MDA-MB-231; assay: Induction of apoptosis in human MDA-MB-231 cells assessed as necrotic cells at 333 nM incubated for 72 hrs by Annexin V-FITC/PI staining based flow cytometry analysis (reference value: 0.49 %); format: functional
[10] = system: MDA-MB-231; assay: Induction of apoptosis in human MDA-MB-231 cells assessed as early apoptotic cells at 333 nM incubated for 72 hrs by Annexin V-FITC/PI staining based flow cytometry analysis (reference value: 0.66 %); format: functional
[11] = system: MDA-MB-231; assay: Induction of apoptosis in human MDA-MB-231 cells transfected with shCDK9 assessed as reduction in Bcl-2 expression at 300 nM by Western blot analysis; format: functional, cell-based
[12] = Tmax in Sprague-Dawley rat at 50 mg/kg, ip measured afer 24 hrs by LC-MS/MS analysis; format: ADME, organism-based; settings: in vivo
[13] = molecular target: Cyclin-dependent kinase 7 (Homo sapiens) (UniProt P50613); assay: Binding affinity to CDK7 in human MDA-MB-231 cells asssesed as thermal stabilization at 1 uM incubated for 8 hrs under 45 to 65 degreeC by Western blot analysis; format: cell-based
[14] = Toxicity in athymic BALB/c mouse implanted with mouse 4T1 cells assessed as reduction in tolerance at 12.5 mg/kg, ip administered for 14 days; format: organism-based; settings: in vivo, 336 h, time 14 day
[15] = Cytotoxicity against human L02 cells assessed as inhibition of cell growth incubated for 72 hrs by MTT assay; format: toxicity, cell-based
[16] = system: MDA-MB-231; assay: Induction of apoptosis in human MDA-MB-231 cells assessed as early apoptotic cells at 111 nM incubated for 72 hrs by Annexin V-FITC/PI staining based flow cytometry analysis (reference value: 0.66 %); format: functional
[17] = system: MDA-MB-231; assay: Induction of apoptosis in human MDA-MB-231 cells assessed as reduction in Bcl2 level incubated for 24 hrs by Western blot analysis; format: functional, cell-based; settings: dose 37-1000 nM
[18] = system: MDA-MB-231; assay: Inhibition of colony formation in human MDA-MB-231 cells at 20 nM incubated for 10 days in presence of olaparib by crystal violet staining based analysis; format: functional, cell-based; settings: time 10.0 day
[19] = Toxicity in athymic BALB/c mouse implanted with mouse 4T1 cells assessed as heart tissue damage at 12.5 to 25 mg/kg, ip administered for 14 days; format: organism-based; settings: in vivo, 336 h, dose 12.5-25 mg/kg, time 14 day
[20] = system: MDA-MB-231; assay: Inhibition of colony formation in human MDA-MB-231 cells assessed as reduction in colony number at >=111 nM incubated for 10 days by crystal violet staining based analysis relative to control; format: functional; settings: time 10 day
[21] = AUC (0 to infinity) in Sprague-Dawley rat at 50 mg/kg, ip measured afer 24 hrs by LC-MS/MS analysis; format: ADME, organism-based; settings: in vivo
[22] = molecular target: Cyclin-dependent kinase 1 (Homo sapiens) (UniProt P06493); assay: Binding affinity to CDK1 in human MDA-MB-231 cells asssesed as thermal stabilization at 1 uM incubated for 8 hrs under 45 to 65 degreeC by Western blot analysis; format: cell-based
[23] = system: MDA-MB-231; assay: Effect on RNA polymerase II phosphorylation at Ser2 residue in human MDA-MB-231 cells transfected with shCDK9 at 300 nM by Western blot analysis; format: functional, cell-based
[24] = system: MDA-MB-231; assay: Antiproliferative activity against human MDA-MB-231 cells assessed as inhibition of 3D tumor growth at 100 nM incubated for 10 days in presence of olaparib by confocal laser scanning microscopic analysis; format: functional, cell-based; settings: time 10.0 day
[25] = Toxicity in athymic BALB/c mouse implanted with mouse 4T1 cells assessed as lung tissue damage at 12.5 to 25 mg/kg, ip administered for 14 days; format: organism-based; settings: in vivo, 336 h, dose 12.5-25 mg/kg, time 14 day
[26] = system: MDA-MB-231; assay: Induction of apoptosis in human MDA-MB-231 cells assessed as viable cells at 37 nM incubated for 72 hrs by Annexin V-FITC/PI staining based flow cytometry analysis (reference value: 94.81 %); format: functional; settings: read-out: Activity
[27] = MRT (0 to t) in Sprague-Dawley rat at 50 mg/kg, ip measured afer 24 hrs by LC-MS/MS analysis; format: ADME, organism-based; settings: in vivo
[28] = Toxicity in mouse assessed as median lethal dose administered intraperitoneally for 16 days; settings: in vivo, route ip, time 16 day
[29] = Half life in Sprague-Dawley rat at 50 mg/kg, ip measured afer 24 hrs by LC-MS/MS analysis; format: ADME, organism-based; settings: in vivo
[30] = system: MDA-MB-231; assay: Synergistic antiproliferative activity against human MDA-MB-231 cells assessed as inhibition of cell growth incubated for 48 hrs in presence of varying concentrations of olaparib by MTT assay; format: functional, cell-based; settings: dose 0.01-4 µM
[31] = Toxicity in mouse assessed as lethal dose administered intraperitoneally for 16 days by Karber's method; settings: in vivo, route ip, time 16 day
[32] = system: MDA-MB-231; assay: Inhibition of cell invasion in human MDA-MB-231 cells at 1000 nM incubated for 24 hrs by crystal violet staining based transwell matrix penetration assay; format: functional
[33] = system: MDA-MB-231; assay: Induction of apoptosis in human MDA-MB-231 cells assessed as late apoptotic cells at 111 nM incubated for 72 hrs by Annexin V-FITC/PI staining based flow cytometry analysis (reference value: 4.04 %); format: functional
[34] = system: MDA-MB-231; assay: Induction of apoptosis in human MDA-MB-231 cells transfected with shCDK9 assessed as increase in cleaved PARP expression at 300 nM by Western blot analysis; format: functional, cell-based
[35] = system: 4T1; assay: Antitumor activity against mouse 4T1 cells implanted in athymic BALB/c mouse assessed as tumor inhibition rate at 12.5 mg/kg, ip administered for 14 days relative to control; format: functional; settings: 4T1, 336 h, time 14 day

Cyclin-dependent kinase 1 (Homo sapiens), sequence (P06493 whole entry, looked up): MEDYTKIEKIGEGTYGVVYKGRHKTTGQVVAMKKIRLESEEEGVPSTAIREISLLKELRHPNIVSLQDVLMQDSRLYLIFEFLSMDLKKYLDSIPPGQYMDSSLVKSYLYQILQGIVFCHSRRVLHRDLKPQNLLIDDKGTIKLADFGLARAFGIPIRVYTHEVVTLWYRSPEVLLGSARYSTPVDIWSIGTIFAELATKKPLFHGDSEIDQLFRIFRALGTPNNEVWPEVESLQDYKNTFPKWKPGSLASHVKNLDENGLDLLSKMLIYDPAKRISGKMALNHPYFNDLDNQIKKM
Cyclin-dependent kinase 7 (Homo sapiens), sequence (P50613 whole entry): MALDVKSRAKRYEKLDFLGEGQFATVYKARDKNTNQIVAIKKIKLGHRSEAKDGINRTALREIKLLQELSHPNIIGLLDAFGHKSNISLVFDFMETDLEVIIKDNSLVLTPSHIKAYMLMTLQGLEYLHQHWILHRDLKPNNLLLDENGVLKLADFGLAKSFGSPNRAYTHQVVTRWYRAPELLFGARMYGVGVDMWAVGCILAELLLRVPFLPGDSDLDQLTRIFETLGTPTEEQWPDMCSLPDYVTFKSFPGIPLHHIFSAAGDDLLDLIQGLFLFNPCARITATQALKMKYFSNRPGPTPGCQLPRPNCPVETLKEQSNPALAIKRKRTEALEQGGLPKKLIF

COc1ccc(C(=O)Nc2cc(-c3ccnc(N4CCC(O)CC4)c3)ccn2)cc1
viability at 0.333 µM [1]: 30.8% | Activity [2]: Active | viability at 0.111 µM [3]: 43.6% | Activity [4]: 71.6% | inhibition [5]: Active | inhibition [6]: Dose-Dependent Effect | IC50 at 72 h [7]: 481 nM | mortality at 384 h [8]: 100% | Activity [9]: 0.25% | Activity [10]: 20.4% | Activity [11]: inactive | Tmax [12]: 0.5 h | Activity [13]: inactive | Activity [14]: Non-Toxic | IC50 at 72 h [15]: 756 nM | Activity [16]: 21.3% | Activity [17]: Dose-Dependent Effect | inhibition [18]: Active | Activity [19]: Non-Toxic | inhibition (INH) [20]: ~100% | AUC(0-inf) [21]: 17000 ng·h/mL | Activity [22]: inactive | Activity [23]: inactive | Activity [24]: Active | Activity [25]: Non-Toxic | viability at 0.037 µM [26]: 83.6% | MRT last at 24 h [27]: 1.26 h | LD50 at 384 h [28]: 750 mg/kg | half-life [29]: 1.67 h | Activity [30]: Dose-Dependent Effect | LD50 at 384 h [31]: 537 mg/kg | inhibition [32]: Active | Activity [33]: 34.93% | Activity [34]: inactive | inhibition in vivo at 12.5 mg/kg [35]: 63.1%
